Measured values as given in US20020025312A1, “BIFUNCTIONAL WATER-SOLUBLE POLYMER DERIVATIVE AND COMPLEX CONTAINING IT” (priority 1997, published 2002).

Settings: 2 mg/kg as adriamycin, tail vein, male BALB/c mouse
Protocol: To compare retention in blood of the respective liposomes, 2 mg/kg as the amount of adriamycin was administered from the tale vein to a male BALB/c mouse. After each period of time, the mouse was killed, and the plasma was collected. The amount of adriamycin was quantitatively analyzed by measuring fluorescence after extraction with hydrochloric acid/ethanol in accordance with a method of Konno et al. (Cancer Res. 47 4471 (1987)).
Accordingly, the amount of detected adriamycin is considered to reflect the behavior as the relevant liposome.

With COc1cccc2c1C(=O)c1c(O)c3c(c(O)c1C2=O)C[C@@](O)(C(=O)CO)C[C@@H]3O[C@H]1C[C@H](N)[C@H](O)[C@H](C)O1 [free adriamycin, adriamycin] the “retention in blood (concentration of adriamycin in blood plasma)” value was “disappeared from blood swiftly after the administration”.
